Source: patent publication EP4810052A2, “HCRHR2 SELECTIVE POLYPEPTIDES” (Gubra A/S, priority 2023, dated 2026)
Where two headings read alike, the source gives them in different places. Starred links: 1 amine or outer side, 2 acyl side, 3 side chain; linkers in the order of their positions; H or OH if unused. Non-standard residues stand in square brackets, D forms with d. Residues, ends and D or L forms follow the SMILES beside them. Groups on a side chain read outwards from the residue. *: point of attachment. C20 diacid = O=C(O)CCCCCCCCCCCCCCCCCCC(=O)*; γGlu = O=C(O)[C@H](CCC(=O)[*:2])N[*:1]; Nle = CCCC[C@H](N)C(=O)O; AEEA = NCCOCCOCC(=O)O

Columns and labels:
hCRHR2 = molecular target: T1, hCRHR2 (Homo sapiens, UniProt Q13324); experiment: HTRF cAMP assay, determination of hCRHR2 potency (peptide libraries 5 conc., purified peptides 11 conc.); format: cell-based
T1 sequence (Q13324 1-411): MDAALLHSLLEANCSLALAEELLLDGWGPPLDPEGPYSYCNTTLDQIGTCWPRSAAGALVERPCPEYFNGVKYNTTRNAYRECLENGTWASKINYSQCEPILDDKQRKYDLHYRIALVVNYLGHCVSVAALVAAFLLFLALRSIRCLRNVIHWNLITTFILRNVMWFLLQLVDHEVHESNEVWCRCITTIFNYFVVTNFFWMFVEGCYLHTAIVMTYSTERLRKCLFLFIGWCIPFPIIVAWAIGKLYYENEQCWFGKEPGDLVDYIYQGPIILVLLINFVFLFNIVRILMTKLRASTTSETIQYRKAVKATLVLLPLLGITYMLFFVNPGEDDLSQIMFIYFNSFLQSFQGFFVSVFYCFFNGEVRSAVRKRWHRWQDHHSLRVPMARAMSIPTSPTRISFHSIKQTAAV
Summary of the method: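 CHO-K1 cells stably expressing human CRHR2 were thawed from frozen stocks immediately before use and assayed in suspension with agonist peptides. cAMP was measured by time-resolved FRET in a competitive immunoassay between cryptate-labelled anti-cAMP antibody and d2-labelled cAMP. EC50 values came from nonlinear regression, sigmoid variable-slope fit.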

hCRHR1 = molecular target: T2, hCRHR1 (Homo sapiens, UniProt P34998); experiment: HTRF cAMP assay, determination of hCRHR1 potency (peptide libraries 5 conc., purified peptides 11 conc.); format: cell-based
T2 sequence (P34998 24-415): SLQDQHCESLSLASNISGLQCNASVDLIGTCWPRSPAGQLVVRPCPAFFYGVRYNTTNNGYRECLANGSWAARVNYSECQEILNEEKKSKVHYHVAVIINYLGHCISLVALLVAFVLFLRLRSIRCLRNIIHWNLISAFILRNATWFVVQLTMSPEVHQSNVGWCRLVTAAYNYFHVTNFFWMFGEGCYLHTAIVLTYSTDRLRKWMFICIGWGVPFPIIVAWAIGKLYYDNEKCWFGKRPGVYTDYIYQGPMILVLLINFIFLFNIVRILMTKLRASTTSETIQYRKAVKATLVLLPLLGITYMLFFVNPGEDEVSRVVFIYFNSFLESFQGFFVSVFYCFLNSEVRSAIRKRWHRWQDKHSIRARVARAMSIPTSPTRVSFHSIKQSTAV
Summary of the method: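 CHO-K1 cells stably expressing human CRHR1, thawed from frozen stocks just before use, were stimulated in suspension with agonist peptides. cAMP was measured by HTRF competitive immunoassay (cryptate anti-cAMP antibody vs d2-cAMP).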

[1] = library peptides, matched molecular pairs L vs Nle in position X^38, read-out: Potency hCRHR2 pEC50 (converted)
[2] = library peptides, matched molecular pairs L vs Nle in position X^38, read-out: Potency hCRHR1 pEC50 (converted)

Row | SMILES | Selectivity ratio (hCRHR1/ hCRHR2) (hCRHR2; Table 5) | EC50 (hCRHR2; Table 5, purified peptides, read-out: hCRHR2 EC50) [nM] | EC50 (hCRHR2; [1]) [nM] | EC50 (hCRHR1; Table 5, purified peptides, read-out: hCRHR1 EC50) [µM] | EC50 (hCRHR1; [2]) [µM]
1 | CCCC[C@H](NC(=O)[C@@H](NC(=O)[C@H](CCC(=O)O)NC(=O)[C@H](C)NC(=O)[C@H](CC(N)=O)NC(=O)[C@@H](NC(=O)[C@H](CCCCNC(=O)COCCOCCNC(=O)COCCOCCNC(=O)CC[C@H](NC(=O)CC[C@H](NC(=O)CCCCCCCCCCCCCCCCCCC(=O)O)C(=O)O)C(=O)O)NC(=O)[C@H](C)NC(=O)[C@H](CCC(N)=O)NC(=O)[C@H](CCC(=O)O)NC(=O)[C@H](CCCNC(=N)N)NC(=O)[C@H](C)NC(=O)[C@H](C)NC(=O)[C@H](CCCNC(=N)N)NC(=O)[C@H](C)NC(=O)[C@H](CCCNC(=N)N)NC(=O)[C@H](C)NC(=O)[C@H](CCC(N)=O)NC(=O)[C@H](CO)NC(=O)[C@H](CC(C)C)NC(=O)[C@H](CC(C)C)NC(=O)[C@@H](NC(=O)[C@H](CCC(N)=O)NC(=O)[C@H](CC(C)C)NC(=O)[C@H](CC(C)C)NC(=O)CNC(=O)[C@@H](NC(=O)[C@@H]1CCCN1C(=O)[C@@H](NC(=O)[C@H](CC(=O)O)NC(=O)[C@H](CC(C)C)NC(=O)[C@H](CO)NC(=O)[C@H](CC(C)C)NC(=O)[C@@H](NC(=O)[C@@H](N)[C@@H](C)CC)C(C)C)C(C)C)[C@@H](C)CC)[C@@H](C)CC)[C@@H](C)O)[C@@H](C)CC)C(=O)N[C@@H](C)C(=O)N[C@@H](CCC(=O)O)C(=O)N[C@H](C(N)=O)[C@@H](C)CC [compound 89] (H-IVLSLDVPIGLLQILLSQARARAAREQAK([AEEA-AEEA-γGlu-γGlu-C20 diacid])TNAEI[Nle]AEI-NH2) | >9091 | 0.55 | 0.398 | > 5 | 398
2 | CC[C@H](C)[C@H](N)C(=O)N[C@H](C(=O)N[C@@H](CC(C)C)C(=O)N[C@@H](CO)C(=O)N[C@@H](CC(C)C)C(=O)N[C@@H](CC(=O)O)C(=O)N[C@H](C(=O)N1CCC[C@H]1C(=O)N[C@H](C(=O)NCC(=O)N[C@@H](CC(C)C)C(=O)N[C@@H](CC(C)C)C(=O)N[C@@H](CCC(N)=O)C(=O)N[C@H](C(=O)N[C@@H](CC(C)C)C(=O)N[C@@H](CC(C)C)C(=O)N[C@@H](CCC(=O)O)C(=O)N[C@@H](CCC(N)=O)C(=O)N[C@@H](C)C(=O)N[C@@H](CCCNC(=N)N)C(=O)N[C@@H](C)C(=O)N[C@@H](CCCNC(=N)N)C(=O)N[C@H](C(=O)N[C@@H](C)C(=O)N[C@@H](CCCNC(=N)N)C(=O)N[C@@H](CCC(=O)O)C(=O)N[C@@H](CCC(N)=O)C(=O)N[C@@H](C)C(=O)N[C@@H](CCCCNC(=O)COCCOCCNC(=O)COCCOCCNC(=O)CC[C@H](NC(=O)CC[C@H](NC(=O)CCCCCCCCCCCCCCCCCCC(=O)O)C(=O)O)C(=O)O)C(=O)N[C@H](C(=O)N[C@@H](CC(N)=O)C(=O)N[C@@H](C)C(=O)N[C@@H](CCC(=O)O)C(=O)N[C@H](C(=O)N[C@@H](CC(C)C)C(=O)N[C@@H](C)C(=O)N[C@@H](CCC(=O)O)C(=O)N[C@H](C(N)=O)C(C)C)[C@@H](C)CC)[C@@H](C)O)C(C)C)[C@@H](C)CC)[C@@H](C)CC)C(C)C)C(C)C [compound 90] (H-IVLSLDVPIGLLQILLEQARARVAREQAK([AEEA-AEEA-γGlu-γGlu-C20 diacid])TNAEILAEV-NH2) |  |  | 1 |  | 20
